Measurements: PubChem BioAssay AID1919001 (Molecular Pharmacology Branch, DTP, NCI, 2023)

System: 699152-130-R-J1-PDC complex spheroid growth
Assay: Anticancer human tumor 699152-130-R-J1-PDC patient-derived pancreatic carcinoma cell line growth inhibition [AhR]
Conditions: for IC50: curve of first compound; for viability, T/C: stronger effect = lower value
Method in brief: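 Spheroids combined tumor cells with HUVEC endothelial cells and human MSCs as stroma. AhR antagonists were paired with standard or investigational drugs, each dosed in half-log steps down from near clinical Cmax, or from 10 microM where Cmax was unknown.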

[1] = second compound 0.1 µM, first compound 0.0316 µM
[2] = second compound 0.1 µM, first compound 0.1 µM
[3] = second compound 0.1 µM, first compound 0.316 µM
[4] = second compound 0.1 µM, first compound 1 µM
[5] = second compound 0.316 µM, first compound 0.0316 µM
[6] = second compound 0.316 µM, first compound 0.1 µM
[7] = second compound 0.316 µM, first compound 0.316 µM
[8] = second compound 0.316 µM, first compound 1 µM
[9] = second compound 1 µM, first compound 0.0316 µM
[10] = second compound 1 µM, first compound 0.1 µM
[11] = second compound 1 µM, first compound 0.316 µM
[12] = second compound 1 µM, first compound 1 µM
[13] = second compound 3.16 µM, first compound 0.0316 µM
[14] = second compound 3.16 µM, first compound 0.1 µM
[15] = second compound 3.16 µM, first compound 0.316 µM
[16] = second compound 3.16 µM, first compound 1 µM
[17] = second compound 10 µM, first compound 0.0316 µM
[18] = second compound 10 µM, first compound 0.1 µM
[19] = second compound 10 µM, first compound 0.316 µM
[20] = second compound 10 µM, first compound 1 µM
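Further: compound exposure lasted 7 days after spheroids had grown for 3 days.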

CC1COCCN1c1cc(-c2ccnn2C)c2ccnc(-c3ccn[nH]3)c2n1 (stereo not given) + Cc1ccccc1N=Nc1ccc(NC(=O)c2ccnn2C)c(C)c1
IC50 (second compound 0.1 µM): > 1 µM
IC50 (second compound 0.316 µM): > 1 µM
IC50 (second compound 1 µM): > 1 µM
IC50 (second compound 3.16 µM): > 1 µM
IC50 (second compound 10 µM): > 1 µM
viability, T/C (second compound 0.1 µM, first compound 0.00316 µM): 105%
viability, T/C (second compound 0.1 µM, first compound 0.01 µM): 100%
viability, T/C [1]: 94.6%
viability, T/C [2]: 84.1%
viability, T/C [3]: 83.3%
viability, T/C [4]: 62.6%
viability, T/C (second compound 0.316 µM, first compound 0.00316 µM): 87.8%
viability, T/C (second compound 0.316 µM, first compound 0.01 µM): 96.9%
viability, T/C [5]: 101%
viability, T/C [6]: 82.7%
viability, T/C [7]: 68.3%
viability, T/C [8]: 61.9%
viability, T/C (second compound 1 µM, first compound 0.00316 µM): 99.8%
viability, T/C (second compound 1 µM, first compound 0.01 µM): 110%
viability, T/C [9]: 101%
viability, T/C [10]: 93.5%
viability, T/C [11]: 79.5%
viability, T/C [12]: 66.9%
viability, T/C (second compound 3.16 µM, first compound 0.00316 µM): 105%
viability, T/C (second compound 3.16 µM, first compound 0.01 µM): 110%
viability, T/C [13]: 101%
viability, T/C [14]: 89.3%
viability, T/C [15]: 72.1%
viability, T/C [16]: 60.1%
viability, T/C (second compound 10 µM, first compound 0.00316 µM): 119%
viability, T/C (second compound 10 µM, first compound 0.01 µM): 128%
viability, T/C [17]: 103%
viability, T/C [18]: 116%
viability, T/C [19]: 80.8%
viability, T/C [20]: 65.9%

CC1COCCN1c1cc(C2(S(C)(=N)=O)CC2)nc(-c2ccnc3[nH]ccc23)n1 (stereo not given) + Cc1ccccc1N=Nc1ccc(NC(=O)c2ccnn2C)c(C)c1
IC50 (second compound 0.1 µM): > 10 µM
IC50 (second compound 0.316 µM): > 10 µM
IC50 (second compound 1 µM): > 10 µM
IC50 (second compound 3.16 µM): > 10 µM
IC50 (second compound 10 µM): > 10 µM
viability, T/C [1]: 109%
viability, T/C [2]: 109%
viability, T/C [3]: 86.1%
viability, T/C [4]: 88.9%
viability, T/C (second compound 0.1 µM, first compound 3.16 µM): 88.4%
viability, T/C (second compound 0.1 µM, first compound 10 µM): 73.7%
viability, T/C [5]: 92%
viability, T/C [6]: 98%
viability, T/C [7]: 98.4%
viability, T/C [8]: 101%
viability, T/C (second compound 0.316 µM, first compound 3.16 µM): 84.9%
viability, T/C (second compound 0.316 µM, first compound 10 µM): 65.8%
viability, T/C [9]: 90.5%
viability, T/C [10]: 101%
viability, T/C [11]: 99.5%
viability, T/C [12]: 95.9%
viability, T/C (second compound 1 µM, first compound 3.16 µM): 84.8%
viability, T/C (second compound 1 µM, first compound 10 µM): 65.3%
viability, T/C [13]: 105%
viability, T/C [14]: 97%
viability, T/C [15]: 97.9%
viability, T/C [16]: 99%
viability, T/C (second compound 3.16 µM, first compound 3.16 µM): 79.2%
viability, T/C (second compound 3.16 µM, first compound 10 µM): 69.8%
viability, T/C [17]: 111%
viability, T/C [18]: 125%
viability, T/C [19]: 112%
viability, T/C [20]: 104%
viability, T/C (second compound 10 µM, first compound 3.16 µM): 94.8%
viability, T/C (second compound 10 µM, first compound 10 µM): 80.6%

O=C(C=Cn1cnc(-c2cc(C(F)(F)F)cc(C(F)(F)F)c2)n1)NNc1cnccn1 + Cc1ccccc1N=Nc1ccc(NC(=O)c2ccnn2C)c(C)c1
IC50 (second compound 0.1 µM): > 3 µM
IC50 (second compound 0.316 µM): > 3 µM
IC50 (second compound 1 µM): > 3 µM
IC50 (second compound 3.16 µM): > 3 µM
IC50 (second compound 10 µM): > 3 µM
viability, T/C (second compound 0.1 µM, first compound 0.00949 µM): 92.5%
viability, T/C (second compound 0.1 µM, first compound 0.03 µM): 84.5%
viability, T/C (second compound 0.1 µM, first compound 0.0949 µM): 87.8%
viability, T/C (second compound 0.1 µM, first compound 0.3 µM): 75.1%
viability, T/C (second compound 0.1 µM, first compound 0.949 µM): 78.1%
viability, T/C (second compound 0.1 µM, first compound 3 µM): 57.5%
viability, T/C (second compound 0.316 µM, first compound 0.00949 µM): 85.5%
viability, T/C (second compound 0.316 µM, first compound 0.03 µM): 82%
viability, T/C (second compound 0.316 µM, first compound 0.0949 µM): 82.7%
viability, T/C (second compound 0.316 µM, first compound 0.3 µM): 79.3%
viability, T/C (second compound 0.316 µM, first compound 0.949 µM): 69.1%
viability, T/C (second compound 0.316 µM, first compound 3 µM): 58%
viability, T/C (second compound 1 µM, first compound 0.00949 µM): 92%
viability, T/C (second compound 1 µM, first compound 0.03 µM): 90.8%
viability, T/C (second compound 1 µM, first compound 0.0949 µM): 93.2%
viability, T/C (second compound 1 µM, first compound 0.3 µM): 78.7%
viability, T/C (second compound 1 µM, first compound 0.949 µM): 74.2%
viability, T/C (second compound 1 µM, first compound 3 µM): 61.6%
viability, T/C (second compound 3.16 µM, first compound 0.00949 µM): 97.6%
viability, T/C (second compound 3.16 µM, first compound 0.03 µM): 115%
viability, T/C (second compound 3.16 µM, first compound 0.0949 µM): 98.6%
viability, T/C (second compound 3.16 µM, first compound 0.3 µM): 69.6%
viability, T/C (second compound 3.16 µM, first compound 0.949 µM): 76.4%
viability, T/C (second compound 3.16 µM, first compound 3 µM): 66.6%
viability, T/C (second compound 10 µM, first compound 0.00949 µM): 120%
viability, T/C (second compound 10 µM, first compound 0.03 µM): 112%
viability, T/C (second compound 10 µM, first compound 0.0949 µM): 91.7%
viability, T/C (second compound 10 µM, first compound 0.3 µM): 77.5%
viability, T/C (second compound 10 µM, first compound 0.949 µM): 69.9%
viability, T/C (second compound 10 µM, first compound 3 µM): 69.7%
